# Measurements from patent US7622256B2, “Method for selecting compounds that modulate MIF-induced expression of ICAM-1 and/or VCAM-1” (Avigen, Inc., priority 2006, dated 2009).
# What was measured:
# [1] = system: rMIF-induced cell surface VCAM-1 expression in PBMCs; assay: Cell surface ELISA of VCAM-1 expression in stimulated PBMC culture; format: cell-based, Human; conditions: for % change in VCAM-1 expression with ibudilast: normalized to no stimulant levels, n = 2
# Description: (§1) In order to determine whether ibudilast antagonized MIF activity, a peripheral blood mononuclear cell (PBMC) culture model was used. Human PBMCs were isolated by Ficoll gradient. Cells were plated in a 96-well tissue culture plate in RPMI medium without serum and incubated overnight to achieve quiescence. They were then treated with 0.1% DMSO (vehicle) or ibudilast at 10 μM, one hour prior to stimulation with recombinant human MIF (0.8, 8, or 80 nM) or LPS (10 ng/mL). 9 hours post-stimulation, the adherent cells were fixed and analyzed for expression of […] adhesion molecule-1 (ICAM-1) and vascular cell adhesion molecule-1 (VCAM-1) via cell surface enzyme linked immunosorbent assay (ELISA).
# [2] = system: rMIF-induced cell surface ICAM-1 expression in PBMCs; assay: Cell surface ELISA of ICAM-1 expression in stimulated PBMC culture; format: cell-based, Human; conditions: for % change in ICAM-1 expression with ibudilast: normalized to no stimulant levels, n = 2
# Description: as §1
# [3] = 10 μM ibudilast 1 h before stimulant, LPS 10 ng/mL, 9 hours post-stimulation
# [4] = 10 μM ibudilast 1 h before stimulant, MIF 0.8 nM, 9 hours post-stimulation
# [5] = 10 μM ibudilast 1 h before stimulant, MIF 8 nM, 9 hours post-stimulation
# [6] = 10 μM ibudilast 1 h before stimulant, MIF 80 nM, 9 hours post-stimulation
# [7] = 10 μM ibudilast, No Stimulant (quiescent cells)
# [8] = 10 μM ibudilast, recombinant human MIF stimulation
compound,measurement,setting,value
"CC(C)C(=O)c1c(C(C)C)nn2ccccc12 [ibudilast, 3-isobutyryl-2-isopropylpyrazolo[1,5-a]pyridine]",% change in VCAM-1 expression with ibudilast,[1]; [3],−1.5%
same,% change in VCAM-1 expression with ibudilast,[1]; [4],−2.9%
same,% change in VCAM-1 expression with ibudilast,[1]; [5],4.4%
same,% change in VCAM-1 expression with ibudilast,[1]; [6],5.4%
same,effect on LPS induction of VCAM-1 (in words),"[1]; 10 μM ibudilast, LPS 10 ng/mL",not significantly affected
same,% change in VCAM-1 expression with ibudilast,[1]; [7],95.1%
same,effect on recombinant MIF-induced expression of VCAM-1 (in words),[1]; [8],antagonizes
same,% change in ICAM-1 expression with ibudilast,[2]; [3],74.5%
same,% change in ICAM-1 expression with ibudilast,[2]; [4],−2.5%
same,% change in ICAM-1 expression with ibudilast,[2]; [5],−0.95%
same,% change in ICAM-1 expression with ibudilast,[2]; [6],−1.3%
same,effect on LPS induction of ICAM-1 (in words),"[2]; 10 μM ibudilast, LPS 10 ng/mL",not significantly affected
same,% change in ICAM-1 expression with ibudilast,[2]; [7],30.9%
same,effect on recombinant MIF-induced expression of ICAM-1 (in words),[2]; [8],antagonizes
